Assay [1] has as its system Hep 3B2. Put plainly: Antiproliferative activity against human Hep3B cells assessed as cell viability at 10 uM after 48 hrs by MTT assay relative to control. To be noted: read-out: Activity. It is filed as functional. For orientation: Formazan colour is commonly taken as a measure of viable cells.
The subject of assay [2] is Huh-7. Put plainly: Antiproliferative activity against human Huh-7 cells assessed as cell viability at 10 uM after 48 hrs by MTT assay relative to control. To be noted: read-out: Activity. In kind it is functional.
Assay [3] relates to HepG2. Put plainly: Antiproliferative activity against human HepG2 cells assessed as cell viability at 10 uM after 48 hrs by MTT assay relative to control. Conditions: read-out: Activity. In kind it is functional.
Assay [4] deals with Huh-7. Put plainly: Antiproliferative activity against human Huh-7 cells assessed as reduction in cell viability after 48 hrs by MTT assay. It is filed as functional, cell-based. Conditions: Huh-7, 48 h.
In assay [5] the test system is Hep 3B2. Put plainly: Antiproliferative activity against human Hep3B cells assessed as reduction in cell viability after 48 hrs by MTT assay. In kind it is functional, cell-based.
The test system of another assay is WI-38. Nature of the assay: Cytotoxicity against human WI-38 cells assessed as cell viability after 48 hrs by MTT assay. In kind it is cell-based. Conditions: WI-38, 48 h.
The test system of assay [6] is HepG2. Nature of the assay: Antiproliferative activity against human HepG2 cells assessed as reduction in cell viability after 48 hrs by MTT assay. It is filed as functional, cell-based. To be noted: HepG2, 48 h.

The structures appear in SMILES notation.

The term IC50 denotes the concentration that inhibits the measured activity by half.

Take `CNC(=O)c1cc(-n2ccc3cc(NS(=O)(=O)c4ccc(Cl)c(Cl)c4)ccc32)ccn1`: the viability at 10 µM came to 92% in the assay on Hep 3B2 [1], 94% in the assay with Huh-7 [2] and 97% in the assay with HepG2 [3].

Turning to `CNC(=O)c1cc(-n2ccc3cc(NC(=O)Nc4ccc(Cl)c(C(F)(F)F)c4)ccc32)ccn1`, the IC50 with Huh-7 [4] worked out at 15.4 µM; with Hep 3B2 [5], 12.3 µM; with WI-38, 26.7 µM. Moreover, the results for the viability at 10 µM in the assay with Hep 3B2 [1], in the assay on Huh-7 [2] and with HepG2 [3] were 53%, 40% and 55%, respectively.

For the molecule `CNC(=O)c1cc(-n2ccc3cc(NC(=S)Nc4ccc(Cl)c(Cl)c4)ccc32)ccn1`, the results for the viability at 10 µM with Hep 3B2 [1], with Huh-7 [2] and with HepG2 [3] were 86%, 89% and 79%, respectively.

As for `CNC(=O)c1cc(-n2ccc3cc(NC(=O)c4ccc(Cl)c(C(F)(F)F)c4)ccc32)ccn1`, the viability at 10 µM with Hep 3B2 [1] turned out to be 54%; with Huh-7 [2], 42%; with HepG2 [3] it was 32%.

Consider `CNC(=O)c1cc(-n2ccc3cc(NC(=S)Nc4ccccc4)ccc32)ccn1`, for which the viability at 10 µM turned out to be 64% with Hep 3B2 [1], 121% in the assay with Huh-7 [2] and 100% in the assay with HepG2 [3].

In the case of `CNC(=O)c1cc(-n2ccc3cc(NC(=O)c4cccc(C(F)(F)F)c4)ccc32)ccn1`, the 50% inhibitory concentration (IC50) with HepG2 [6] is 2.67 µM; in the assay with WI-38, 6.5 µM. In addition, the viability at 10 µM amounted to 72% in the assay with Hep 3B2 [1], 77% in the assay on Huh-7 [2] and 34% in the assay with HepG2 [3].

On to `CNC(=O)c1cc(-n2ccc3cc(NC(=O)c4ccccc4)ccc32)ccn1`, for which the values for the viability at 10 µM in the assay on Hep 3B2 [1], with Huh-7 [2] and in the assay with HepG2 [3] were 29%, 105% and 99%, respectively.

Regarding `CNC(=O)c1cc(-n2ccc3cc(NC(=O)Nc4cccc(C(F)(F)F)c4)ccc32)ccn1`, the viability at 10 µM in the assay on Hep 3B2 [1] is 58%; in the assay with Huh-7 [2], 68%; with HepG2 [3], 76%.

As to `CNC(=O)c1cc(-n2ccc3cc(NC(=S)Nc4ccc(Cl)c(C(F)(F)F)c4)ccc32)ccn1`, the values for the half-inhibitory concentration (IC50) with Huh-7 [4], in the assay on Hep 3B2 [5] and in the assay on WI-38 were 21.5 µM, 13.9 µM and 28.8 µM, respectively. Further, the viability at 10 µM in the assay on Hep 3B2 [1] was 40%; in the assay with Huh-7 [2] it was 76%; in the assay with HepG2 [3], 60%.

Take `CNC(=O)c1cc(-n2ccc3cc(NC(=O)Nc4ccc(F)c(C(F)(F)F)c4)ccc32)ccn1`: the viability at 10 µM in the assay on Hep 3B2 [1] came out at 49%; in the assay on Huh-7 [2] it was 65%; in the assay on HepG2 [3] it was 67%.

Consider `CNC(=O)c1cc(-n2ccc3cc(NC(=O)Nc4ccccc4)ccc32)ccn1`, for which the viability at 10 µM was found to be 66% in the assay on Hep 3B2 [1], 74% with Huh-7 [2] and 82% with HepG2 [3].

In the case of `CNC(=O)c1cc(-n2ccc3cc(NC(=O)c4ccc(F)c(C(F)(F)F)c4)ccc32)ccn1`, the viability at 10 µM came to 59% in the assay on Hep 3B2 [1], 40% in the assay with Huh-7 [2] and 67% in the assay with HepG2 [3].

Turning to `CNC(=O)c1cc(-n2ccc3cc(NC(=O)c4cc(C(F)(F)F)cc(C(F)(F)F)c4)ccc32)ccn1`, the viability at 10 µM in the assay on Hep 3B2 [1] was found to be 111%; with Huh-7 [2], 77%; in the assay with HepG2 [3] it was 90%.

Regarding `CNC(=O)c1cc(-n2ccc3cc(NC(=O)c4ccc(Cl)c(Cl)c4)ccc32)ccn1`, the viability at 10 µM in the assay with Hep 3B2 [1] is 79%; in the assay with Huh-7 [2], 61%; with HepG2 [3], 80%.

Take `CNC(=O)c1cc(-n2ccc3cc(NC(=S)Nc4cccc(C(F)(F)F)c4)ccc32)ccn1`: the viability at 10 µM with Hep 3B2 [1] came to 99%; in the assay with Huh-7 [2] it was 109%; in the assay with HepG2 [3] it was 81%.

Turning to `CNC(=O)c1cc(-n2ccc3cc(NC(=O)Nc4cc(C(F)(F)F)cc(C(F)(F)F)c4)ccc32)ccn1`, the results for the IC50 in the assay with Huh-7 [4], in the assay with Hep 3B2 [5] and in the assay on WI-38 were 5.01 µM, 29.8 µM and over 30 µM, respectively. Besides, the figures for the viability at 10 µM in the assay with Hep 3B2 [1], in the assay with Huh-7 [2] and with HepG2 [3] were 73%, 30% and 55%, respectively.

Turning to `CNC(=O)c1cc(-n2ccc3cc(NC(=S)Nc4cc(C(F)(F)F)cc(C(F)(F)F)c4)ccc32)ccn1`, the viability at 10 µM turned out to be 55% in the assay on Hep 3B2 [1], 40% in the assay with Huh-7 [2] and 53% in the assay on HepG2 [3].

In the case of `CNC(=O)c1cc(-n2ccc3cc(NS(=O)(=O)c4cc(C(F)(F)F)cc(C(F)(F)F)c4)ccc32)ccn1`, the viability at 10 µM in the assay with Hep 3B2 [1] turned out to be 92%; in the assay on Huh-7 [2], 98%; with HepG2 [3], 96%.

In the case of `CNC(=O)c1cc(-n2ccc3cc(NC(=O)Nc4ccc(N5CCOCC5)c(C(F)(F)F)c4)ccc32)ccn1`, the IC50 was 9.35 µM in the assay on HepG2 [6], 5.6 µM with Huh-7 [4] and over 30 µM with WI-38. The results for the viability at 10 µM in the assay with Hep 3B2 [1], in the assay with Huh-7 [2] and in the assay on HepG2 [3] were 27%, 28% and 47%, respectively.

With `CNC(=O)c1cc(-n2ccc3cc(NC(=O)c4ccc(N5CCOCC5)c(C(F)(F)F)c4)ccc32)ccn1`, the values for the half-inhibitory concentration (IC50) in the assay with HepG2 [6] and in the assay with WI-38 were 237 µM and 8.48 µM, respectively. Also, the figures for the viability at 10 µM with Hep 3B2 [1], in the assay with Huh-7 [2] and with HepG2 [3] were 53%, 46% and 72%, respectively.

Turning to `CNC(=O)c1cc(-n2ccc3cc(NS(=O)(=O)c4ccccc4)ccc32)ccn1`, the viability at 10 µM was 93% with Hep 3B2 [1], 105% in the assay on Huh-7 [2] and 98% with HepG2 [3].

Consider `CNC(=O)c1cc(-n2ccc3cc(NS(=O)(=O)c4cccc(C(F)(F)F)c4)ccc32)ccn1`, for which the viability at 10 µM with Hep 3B2 [1] was 84%; in the assay on Huh-7 [2], 94%; in the assay on HepG2 [3] it was 88%.

As to `CNC(=O)c1cc(-n2ccc3cc(NC(=O)Nc4ccc(Cl)c(Cl)c4)ccc32)ccn1`, the IC50 was determined as 7.96 µM in the assay with Huh-7 [4], 7.94 µM in the assay with Hep 3B2 [5] and 23.1 µM in the assay on WI-38. Also, the viability at 10 µM in the assay on Hep 3B2 [1] amounted to 46%; with Huh-7 [2] it was 43%; in the assay with HepG2 [3] it was 57%.

`CNC(=O)c1cc(-n2ccc3cc(NS(=O)(=O)c4ccc(Cl)c(C(F)(F)F)c4)ccc32)ccn1`: the viability at 10 µM with Hep 3B2 [1] is 92%; in the assay on Huh-7 [2], 101%; with HepG2 [3], 97%.
